Experimental data from the NIST ThermoML archive (doi:10.1021/je900244c).
Values joined by “and” are separate entries in the source; they are usually repeats but may differ in a detail not shown here. Equal entries are not always repeated.

Test: xn = mol fraction of the nth substance listed
Conditions: 323.15 K, Gas, Buoyancy - hydrostatic balance with magnetic suspension - two sinkers

CC(C)C [2-methylpropane] + CCC
Conditions | mass density
660.6 kPa, x2 = 0.244 | 15.487 kg/m3
670 kPa, x2 = 0.244 | 15.744 kg/m3
670 kPa, x2 = 0.249 | 15.714 kg/m3
670.1 kPa, x2 = 0.249 | 15.719 kg/m3
679.7 kPa, x2 = 0.244 | 16.015 kg/m3
680.3 kPa, x2 = 0.249 | 15.998 kg/m3
680.4 kPa, x2 = 0.249 | 16.006 kg/m3
690.2 kPa, x2 = 0.244 | 16.31 kg/m3
690.2 kPa, x2 = 0.249 | 16.277 kg/m3 and 16.285 kg/m3
691.1 kPa, x2 = 0.244 | 16.328 kg/m3
700.1 kPa, x2 = 0.244 | 16.592 kg/m3
700.3 kPa, x2 = 0.249 | 16.571 kg/m3
700.4 kPa, x2 = 0.249 | 16.571 kg/m3
709.8 kPa, x2 = 0.244 | 16.868 kg/m3
710 kPa, x2 = 0.249 | 16.835 kg/m3
710.1 kPa, x2 = 0.249 | 16.843 kg/m3
710.3 kPa, x2 = 0.244 | 16.875 kg/m3
720.3 kPa, x2 = 0.249 | 17.129 kg/m3
720.4 kPa, x2 = 0.249 | 17.137 kg/m3
720.6 kPa, x2 = 0.244 | 17.177 kg/m3
730 kPa, x2 = 0.249 | 17.416 kg/m3
730.3 kPa, x2 = 0.249 | 17.408 kg/m3
730.4 kPa, x2 = 0.244 | 17.456 kg/m3
730.5 kPa, x2 = 0.244 | 17.456 kg/m3
739.8 kPa, x2 = 0.249 | 17.687 kg/m3
740 kPa, x2 = 0.249 | 17.697 kg/m3
740.4 kPa, x2 = 0.244 | 17.75 kg/m3
749.8 kPa, x2 = 0.244 | 18.022 kg/m3
750 kPa, x2 = 0.249 | 17.989 kg/m3 and 17.996 kg/m3
750.2 kPa, x2 = 0.244 | 18.029 kg/m3
759.7 kPa, x2 = 0.249 | 18.276 kg/m3
759.9 kPa, x2 = 0.249 | 18.276 kg/m3
761.2 kPa, x2 = 0.244 | 18.357 kg/m3
769.7 kPa, x2 = 0.244 | 18.602 kg/m3
769.9 kPa, x2 = 0.249 | 18.577 kg/m3
770 kPa, x2 = 0.249 | 18.577 kg/m3
770.4 kPa, x2 = 0.499 | 16.983 kg/m3
770.7 kPa, x2 = 0.499 | 16.982 kg/m3
780 kPa, x2 = 0.249 | 18.871 kg/m3
780.2 kPa, x2 = 0.499 | 17.239 kg/m3
780.3 kPa, x2 = 0.499 | 17.244 kg/m3
780.5 kPa, x2 = 0.249 | 18.894 kg/m3
790.6 kPa, x2 = 0.244 | 19.228 kg/m3
790.6 kPa, x2 = 0.499 | 17.513 kg/m3
799.9 kPa, x2 = 0.249 | 19.467 kg/m3
800.2 kPa, x2 = 0.499 | 17.765 kg/m3 and 17.769 kg/m3
810.5 kPa, x2 = 0.499 | 18.042 kg/m3
820.2 kPa, x2 = 0.499 | 18.299 kg/m3
820.4 kPa, x2 = 0.499 | 18.307 kg/m3
830.3 kPa, x2 = 0.499 | 18.572 kg/m3
840.3 kPa, x2 = 0.499 | 18.844 kg/m3
840.4 kPa, x2 = 0.499 | 18.848 kg/m3
850.3 kPa, x2 = 0.499 | 19.121 kg/m3
860.2 kPa, x2 = 0.499 | 19.387 kg/m3
860.4 kPa, x2 = 0.499 | 19.398 kg/m3
870.4 kPa, x2 = 0.499 | 19.669 kg/m3
879.9 kPa, x2 = 0.499 | 19.938 kg/m3
880.4 kPa, x2 = 0.499 | 19.948 kg/m3
890.2 kPa, x2 = 0.499 | 20.228 kg/m3
900.1 kPa, x2 = 0.499 | 20.506 kg/m3
900.6 kPa, x2 = 0.499 | 20.517 kg/m3
910.1 kPa, x2 = 0.499 | 20.784 kg/m3
920.3 kPa, x2 = 0.499 | 21.078 kg/m3
920.6 kPa, x2 = 0.499 | 21.087 kg/m3
930.3 kPa, x2 = 0.499 | 21.359 kg/m3
939.7 kPa, x2 = 0.499 | 21.637 kg/m3
939.8 kPa, x2 = 0.499 | 21.635 kg/m3
950.6 kPa, x2 = 0.499 | 21.949 kg/m3
960.2 kPa, x2 = 0.499 | 22.222 kg/m3
960.3 kPa, x2 = 0.499 | 22.242 kg/m3
970.3 kPa, x2 = 0.499 | 22.521 kg/m3
978.9 kPa, x2 = 0.499 | 22.767 kg/m3
979.6 kPa, x2 = 0.499 | 22.791 kg/m3
